Results reported in US6759432B2, “Medical use of matrix metalloproteinase inhibitors for inhibiting tissue contraction” (University of Florida Research Foundation, priority 1994, dated 2004).

How the values were obtained:
[1] = tested on: Human ocular fibroblasts (Tendon's capsule fibroblasts); assay: Toxicity by tritiated thymidine incorporation (DNA synthesis); assay type: cell-based; conditions: 80.0, 8.0 and 0.8 μg/ml; 24 hours; medium plus 10% serum and vehicle
Method: The toxicity of the inhibitors was tested by measuring DNA synthesis by tritiated thymidine incorporation. The assay was adapted from a procedure previously described, Woost, P. G. et al 1992.
Human ocular fibroblasts (Tendon's capsule fibroblasts) were cultured in Trimix (DMEM/F-10/M-199) cell culture medium (available from GIBCO/BRL) supplemented with 10% bovine calf serum and grown to confluency in T-75 tissue culture flasks. (That is flasks having a surface area of 75 cm^2.) The cells were split and seeded into 24 well plates at a density of 1×10^4/well in 1.0 ml of medium with 10% bovine calf serum. The cells were incubated for 24-36 hours or until they reached 60-70% confluency. The medium was then changed to serum-free Trimix and the cells were incubated for an additional 24 hours. The cells were then incubated in quadruplicate wells for 24 hours with 1.0 μCi/well ^3H-thymidine in the following conditions: serum-free medium (Trimix), medium plus 10% serum, medium plus 10% serum and vehicle, alone or with the inhibitors. The vehicle was a buffered acetate solution. The solutions comprising medium with 10% serum and vehicle, alone or with inhibitors, were prepared by the method described in Example 1, section (c), above, using Trimix instead of the HEPES buffered DMEM. […] Radioactivity was determined by liquid scintillation counting […] of the solubilized cells. […]

human dermal fibroblasts = assay: Collagen lattice contraction, human dermal fibroblasts; assay type: cell-based; conditions: 40 μg/ml
Method: (§1) Collagen lattices (gels) were prepared as previously described in Example 1 and were seeded with 1×10^5 cells per lattice of:
(§2) The lattices were then exposed to growth medium containing Galardin at 40 μg/ml or hydroxamic acid at 100μM (control). The test solutions were made up as described in Example 3 above and approximately 3 ml dose of the appropriate test solutions were used.

[2] = tested on: rat endotendon fibroblasts; assay: Collagen lattice contraction, rat endotendon fibroblasts; assay type: cell-based; conditions: 40 μg/ml
Method: as §1, §2

gelatinase = assay: Inhibition constant with gelatinase; assay type: biochemical
[3] = tested on: Tenons capsule fibroblast; assay: Actin cytoskeleton staining with FITC-phalloidin; assay type: cell-based, human; conditions: 40 μg/ml
Method: Monolayer cultures of fibroblasts and collagen lattices (gels) seeded with 1×10^5 cells per lattice were prepared (as described in Example 1).
In order to assess whether this difference was owing to the direct effect of the inhibitor or to differences in the degree of invasion into the matrix, cells were exposed in monolayer culture to the inhibitor and the cytoskeleton was-stained. See FIGS. 10A (control) and 10B (exposed to inhibitor). The arrows indicate the stress fibres on the cells in the monolayer culture.

[4] = tested on: MMP activity (proteolytically active species) of human Tenon's capsule fibroblasts; assay: Gelatin zymography of seeded collagen lattices; assay type: cell-based; conditions: treatment of seeded lattices
Method: Samples of conditioned medium and collagen lattices (1×10^5 cells/lattice) were collected on days 1, 3 and 7 post seeding. Lattices were washed in phosphate buffered saline (PBS; 3×3 ml) prior to homogenisation in 0.5% (vol/vol) Triton-X100 in PBS (Hunt et al. 1993]. Gelatin zymography [Heussen & Dowdle 1980] was then performed on these samples. Briefly, samples and prestained molecular weight standards were resolved on 10% tris glycine gels containing 0.1% gelatin (Novex, R&D Systems, Oxford, U.K.). Gels were then incubated for 30 minutes in renaturing buffer, 30 minutes in developing buffer followed by a further 18 hours in developing buffer at 37° C. (all Novex). Gels were than stained in 0.5% (wt/vol) commassie blue in 45% (vol/vol) water, 45% (vol/vol) methanol and 10% (vol/vol) glacial acetic acid, followed by destaining in 45% (vol/vol) water, 45% (vol/vol) water, 45% (vol/vol) methanol and 10% (vol/vol) glacial acetic acid. MMP activity appeared as clear bands on a blue background.

stromelysin = stromelysin (Homo sapiens, UniProt P08254); assay: biochemical
human ocular fibroblasts [5] = assay: Cytotoxicity: cell count and trypan blue dye exclusion; assay type: cell-based; conditions: 40 and 4 μg/ml; 2×10^4 cells per well; vs control medium
Method: This experiment was carried out substantially according to the method of Example 2, except that cells were seeded at 2×10^4 cells per well, cultured without radioactive material and were exposed to control medium (DMEM/10% NCS) or Galardin at 40 μg/ml and 4 μg/ml concentration. […] Wells were harvested and cells counted on a haemocytometer, see FIG. 3E for the results, and the percentage of viable cells in each well was measured using the trypan blue dye exclusion test, see FIG. 3F for the results.

[6] = tested on: rat parietal sheath fibroblasts; assay: Collagen lattice contraction, rat parietal sheath fibroblasts; assay type: cell-based; conditions: 40 μg/ml
Method: as §1, §2

human ocular fibroblasts [7] = assay: Contraction of fibroblast populated collagen gels (lattice area); assay type: cell-based; conditions: for contraction of gels (mean lattice area): 40 and 4 μg/ml, 7 days, vs hydroxamic acid control
Method: They were then removed from their substratum via a trypsinisation and were pelleted by centrifugation at 3000× g for 8 minutes. The supernatant was then discarded and the cell pellet resuspended in 1.1 ml of newborn calf serum. 100 μl of the suspension was removed and counted in a Coulter counter (Model ZF).
Triplicate gels were made by adding 1.05 ml of the concentrated medium to 1.8 ml of the type 1 collagen solution, mixing rapidly and then adding 0.45 ml of a cell suspension containing 300,000 cells and mixing rapidly.
1 ml aliquots of this gel were then added to petri dishes (area=8 cm^2) and then the dishes were rotated so that the gels were evenly distributed across the bottoms of the dishes. The gels were then incubated at 37° C. in 5% CO2 in air until they had solidified (usually 3 to 5 minutes). An area of the gel was then detached from the edge of each petri dish and 3 ml of normal growth medium solution (control 2), inhibitor test solution or buffer solution (control 1), were added. Each gel was then fully detached from the edges and bottom of the petri dish so that free-floating gels were obtained.
The gels, after solidification, were treated for 24 hours with 3 ml of each of the following test solutions:
The test and control solutions were replaced by 3 ml of the appropriate fresh solution after 24 hours. Photographs of the gel areas were taken on days 1 and 2 and were then digitised. The resulting data were processed by a computer and the gel areas were calculated. Phase-contrast photographs were taken of the top and middle of each gel after 1 and 2 days.
Test solutions were used in approximately 3 ml doses. For all contraction experiments cell morphology was monitored by phase contrast microscopy and the growth medium was changed every 3 to 4 days.
Collagen gels were seeded with either 100,000 or 500,000 cells. […] The gels were monitored for 7 days.
They were exposed to inhibitor and control solutions in the following ways:
The experiment was carried out as for (a) above with 1×10^5 cells per lattice and the test solutions used were BB-94 4 μg/ml, BB-94 0.4 μg/ml and control with vehicle (0.1% vol/vol DMSO). The development of the lattices was followed for seven days after seeding.
The experiment was carried out as for (d) above except that the test solutions used were 1:50 (vol/vol) of antibodies in growth medium. The antibodies used were antibodies to MMPs 1, 2, 3 and 9, obtained from Biogenesis Ltd., (Poole, U.K.). A control solution of 0.1% sodium azide and 0.14% rabbit serum in PBS diluted to 1:50 in growth medium was also used.

[8] = tested on: human keratinocytes and human dermal fibroblasts; assay: Contraction of artificial skin equivalent; assay type: cell-based; conditions: 40 μg/ml; 7 days; vs hydroxamic acid 100 μM
Method: The effect of an MMP inhibitor on the contraction of an artificial skin equivalent was tested. […] This lattice was then exposed to growth medium containing Galardin at 40 μg/ml or hydroxamic acid at 100μM (control).

ocular fibroblasts = assay: Fibroblast morphology within collagen lattices (phase contrast microscopy); assay type: cell-based, human
Method: Collagen lattices seeded with ocular fibroblasts were prepared and exposed to MMP inhibitors, both synthetic chemicals and antibodies, as described in Example 3 above. Cellular morphology was monitored by phase contrast microscopy.

[9] = 1×10^5 cells per lattice, 7 days, vs hydroxamic acid 100 μM

Chain of stromelysin (P08254 100-477): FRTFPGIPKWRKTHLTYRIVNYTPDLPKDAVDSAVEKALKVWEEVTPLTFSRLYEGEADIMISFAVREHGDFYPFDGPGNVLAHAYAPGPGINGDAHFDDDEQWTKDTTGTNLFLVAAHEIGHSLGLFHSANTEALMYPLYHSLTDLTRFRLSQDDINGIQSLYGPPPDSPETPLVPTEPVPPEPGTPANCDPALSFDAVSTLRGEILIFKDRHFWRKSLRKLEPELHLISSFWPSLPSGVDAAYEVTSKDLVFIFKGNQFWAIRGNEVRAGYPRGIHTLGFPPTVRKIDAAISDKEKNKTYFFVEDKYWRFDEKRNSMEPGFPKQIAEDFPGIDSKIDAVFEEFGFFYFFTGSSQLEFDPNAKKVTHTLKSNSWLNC

SMILES: CC(C)C[C@H](CC(=O)O)C(=O)N[C@@H](Cc1c[nH]c2ccccc12)C(=O)N[C@@H](C)c1ccccc1 [GM1489]
- toxicity (3H-thymidine incorporation) [1]: no significant toxicity

SMILES: CNC(=O)[C@H](Cc1c[nH]c2ccccc12)NC(=O)[C@@H](CC(=O)NO)CC(C)C [GM6001, N-[2(R)-2-(hydroxamidocarbonylmethyl)-4-methylpentanoyl]-L-tryptophan methylamide]
- contraction of lattices (mean lattice area) (human dermal fibroblasts; [9]): greatly reduced
- cellular invasion into and migration through the surrounding matrix (human dermal fibroblasts; compared to controls): decreased cellular invasion into and migration through
- contraction of lattices (mean lattice area) [2, 9]: greatly reduced
- cellular invasion into and migration through the surrounding matrix ([2]; compared to controls): decreased cellular invasion into and migration through
- Ki (gelatinase): 0.4 nM
- actin stress fibres on cells populating collagen gels ([3]; collagen lattice): do not appear to be present
- actin cytoskeleton in monolayer culture ([3]; monolayer culture, compared to controls): did not appear to affect the actin cytoskeleton
- proteolytically active species in gelatin zymography [4]: abolishment of the four proteolytically active species
- Ki (stromelysin): 20 nM
- cell number per well (haemocytometer) (human ocular fibroblasts [5]): did not adversely affect
- cell viability (percentage of viable cells, trypan blue) (human ocular fibroblasts [5]): did not adversely affect
- contraction of lattices (mean lattice area) [6, 9]: greatly reduced
- cellular invasion into and migration through the surrounding matrix ([6]; compared to controls): decreased cellular invasion into and migration through
- contraction of lattices already contracted for 5 days (human ocular fibroblasts [7]; 4 μg/ml from day 5 for 25 days, vs control solution): inhibited contraction
- contraction after replacement of inhibitor by control solution (reversibility) (human ocular fibroblasts [7]; 4 μg/ml until day 14, then control solution): significant increase in contraction from day 14 onwards
- contraction of lattices already contracted for 5 days (human ocular fibroblasts [7]; 40 μg/ml from day 5 for 25 days): stronger inhibitory effect than the 4 μg/ml solution
- contraction of collagen gels (gel area) (human ocular fibroblasts [7]; 400, 40 and 4 μg/ml, 100,000 cells per gel, 2 days, vs buffer and normal growth medium): inhibited the contraction of the collagen gels
- dose dependence of inhibition of gel contraction (human ocular fibroblasts [7]; 400, 40 and 4 μg/ml, 2 days): dose dependent
- viability of cells in the collagen gels at end of test (phase contrast microscopy) (human ocular fibroblasts [7]; 400, 40 and 4 μg/ml, 2 days): appeared to be viable
- contraction of gels (mean lattice area) (human ocular fibroblasts [7]; 100,000 cells per lattice): much less than that of gels exposed to control solutions
- contraction of gels (mean lattice area) (human ocular fibroblasts [7]; 500,000 cells per lattice): much less than that of gels exposed to the control solution
- contraction of lattices (mean lattice area) (human ocular fibroblasts [7]; continual exposure to 4 μg/ml, 1×10^5 cells/lattice, up to 40 to 50 days): very little contraction
- contraction of artificial skin equivalent (mean lattice area) [8]: less contraction than those exposed to the control solution
- cell morphology in lattices (ocular fibroblasts; 4 μg/ml, 7 days post seeding): Small cytoplasmic projections
- invasion into the surrounding collagen matrix (ocular fibroblasts; synthetic inhibitors as in Example 3, compared to controls): decreased invasion into the surrounding collagen matrix
- toxicity (3H-thymidine incorporation) [1]: no significant toxicity
